Measured values taken from PMC9898036, “VIP152 is a selective CDK9 inhibitor with pre-clinical in vitro and in vivo efficacy in chronic lymphocytic leukemia” (Leukemia, 2022).
Read-outs that look alike come from different tables or passages of the source.

Legend:
Assay in all cases: DiscoverX KINOMEscan kinase profiling (468 assays)
Format in all cases: binding
human kinome [1] = molecular target: human kinome (Homo sapiens, UniProt Q9BYT3); settings: kinase STK33 (Entrez STK33); compound concentration 1000 nM; read-out: Percent Control
Method in brief: (§1)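 DNA-tagged kinases competed for immobilized biotinylated ligands on streptavidin magnetic beads, with bound kinase quantified by qPCR. VIP152 in DMSO was tested against a DMSO control.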

human kinome [2] = molecular target: human kinome (Homo sapiens, UniProt Q8N752); settings: CSNK1A1L; 100 nM; read-out: Percent Control
Method in brief: as §1

human kinome [3] = molecular target: human kinome (Homo sapiens, UniProt Q9H2X6); settings: HIPK2; 100 nM; read-out: Percent Control
Method in brief: as §1

human kinome [4] = molecular target: human kinome (Homo sapiens, UniProt P36888, R834Q); settings: FLT3(R834Q); 100 nM; read-out: Percent Control
Method in brief: as §1

human kinome [5] = molecular target: human kinome (Homo sapiens, UniProt Q15208); settings: read-out: Percent Control
Method in brief: as §1

human kinome [6] = molecular target: human kinome (Homo sapiens, UniProt P29317); settings: EPHA2; 100 nM; read-out: Percent Control
Method in brief: as §1

human kinome [7] = molecular target: human kinome (Homo sapiens, UniProt P49760); settings: CLK2; 100 nM; read-out: Percent Control
Method in brief: as §1

human kinome [8] = molecular target: human kinome (Homo sapiens, UniProt P08581, M1250T); settings: MET(M1250T); 100 nM; read-out: Percent Control
Method in brief: as §1

human kinome [9] = molecular target: human kinome (Homo sapiens, UniProt Q86Z02); settings: HIPK1; 100 nM; read-out: Percent Control
Method in brief: as §1

human kinome [10] = molecular target: human kinome (Homo sapiens, UniProt Q8NG66); settings: read-out: Percent Control
Method in brief: as §1

human kinome [11] = molecular target: human kinome (Homo sapiens, UniProt O95835); settings: LATS1; 100 nM; read-out: Percent Control
Method in brief: as §1

human kinome [12] = molecular target: human kinome (Homo sapiens, UniProt P49336); settings: CDK8; 100 nM; read-out: Percent Control
Method in brief: as §1

human kinome [13] = molecular target: human kinome (Homo sapiens, UniProt P07947); settings: kinase YES (Entrez YES1); compound concentration 1000 nM; read-out: Percent Control
Method in brief: as §1

human kinome [14] = molecular target: human kinome (Homo sapiens, UniProt Q9BZL6); settings: read-out: Percent Control
Method in brief: as §1

human kinome [15] = molecular target: human kinome (Homo sapiens, UniProt P07333); settings: 100 nM, read-out: Percent Control
Method in brief: as §1

human kinome [16] = molecular target: human kinome (Homo sapiens, UniProt P31749); settings: AKT1; 100 nM; read-out: Percent Control
Method in brief: as §1

human kinome [17] = molecular target: human kinome (Homo sapiens, UniProt P54646); settings: AMPK-alpha2 (Entrez PRKAA2); 100 nM; read-out: Percent Control
Method in brief: as §1

human kinome [18] = molecular target: human kinome (Homo sapiens, UniProt Q8IU85); settings: CAMK1D; 100 nM; read-out: Percent Control
Method in brief: as §1

human kinome [19] = molecular target: human kinome (Homo sapiens, UniProt Q9BRS2); settings: kinase RIOK1 (Entrez RIOK1); compound concentration 1000 nM; read-out: Percent Control
Method in brief: as §1

human kinome [20] = molecular target: human kinome (Homo sapiens, UniProt O43283); settings: LZK (Entrez MAP3K13); 100 nM; read-out: Percent Control
Method in brief: as §1

human kinome [21] = molecular target: human kinome (Homo sapiens, UniProt P29322); settings: EPHA8; 100 nM; read-out: Percent Control
Method in brief: as §1

human kinome [22] = molecular target: human kinome (Homo sapiens, UniProt P49674); settings: CSNK1E; 100 nM; read-out: Percent Control
Method in brief: as §1

human kinome [23] = molecular target: human kinome (Homo sapiens, UniProt P52333); settings: JAK3(JH1domain-catalytic); 100 nM; read-out: Percent Control
Method in brief: as §1

human kinome [24] = molecular target: human kinome (Homo sapiens, UniProt P57059); settings: kinase SIK (Entrez SIK1); compound concentration 1000 nM; read-out: Percent Control
Method in brief: as §1

human kinome [25] = molecular target: human kinome (Homo sapiens, UniProt O43318); settings: kinase TAK1 (Entrez MAP3K7); compound concentration 1000 nM; read-out: Percent Control
Method in brief: as §1

human kinome [26] = molecular target: human kinome (Homo sapiens, UniProt Q16832); settings: DDR2; 100 nM; read-out: Percent Control
Method in brief: as §1

human kinome [27] = molecular target: human kinome (Homo sapiens, UniProt Q9Y2K2); settings: read-out: Percent Control
Method in brief: as §1

human kinome [28] = molecular target: human kinome (Homo sapiens, UniProt P17612); settings: read-out: Percent Control
Method in brief: as §1

human kinome [29] = molecular target: human kinome (Homo sapiens, UniProt Q8TF76); settings: HASPIN (Entrez GSG2); 100 nM; read-out: Percent Control
Method in brief: as §1

human kinome [30] = molecular target: human kinome (Homo sapiens, UniProt Q9H4A3); settings: kinase WNK1 (Entrez WNK1); compound concentration 1000 nM; read-out: Percent Control
Method in brief: as §1

Sequence of human kinome (Homo sapiens, UniProt Q9BZL6) (Q9BZL6 whole entry): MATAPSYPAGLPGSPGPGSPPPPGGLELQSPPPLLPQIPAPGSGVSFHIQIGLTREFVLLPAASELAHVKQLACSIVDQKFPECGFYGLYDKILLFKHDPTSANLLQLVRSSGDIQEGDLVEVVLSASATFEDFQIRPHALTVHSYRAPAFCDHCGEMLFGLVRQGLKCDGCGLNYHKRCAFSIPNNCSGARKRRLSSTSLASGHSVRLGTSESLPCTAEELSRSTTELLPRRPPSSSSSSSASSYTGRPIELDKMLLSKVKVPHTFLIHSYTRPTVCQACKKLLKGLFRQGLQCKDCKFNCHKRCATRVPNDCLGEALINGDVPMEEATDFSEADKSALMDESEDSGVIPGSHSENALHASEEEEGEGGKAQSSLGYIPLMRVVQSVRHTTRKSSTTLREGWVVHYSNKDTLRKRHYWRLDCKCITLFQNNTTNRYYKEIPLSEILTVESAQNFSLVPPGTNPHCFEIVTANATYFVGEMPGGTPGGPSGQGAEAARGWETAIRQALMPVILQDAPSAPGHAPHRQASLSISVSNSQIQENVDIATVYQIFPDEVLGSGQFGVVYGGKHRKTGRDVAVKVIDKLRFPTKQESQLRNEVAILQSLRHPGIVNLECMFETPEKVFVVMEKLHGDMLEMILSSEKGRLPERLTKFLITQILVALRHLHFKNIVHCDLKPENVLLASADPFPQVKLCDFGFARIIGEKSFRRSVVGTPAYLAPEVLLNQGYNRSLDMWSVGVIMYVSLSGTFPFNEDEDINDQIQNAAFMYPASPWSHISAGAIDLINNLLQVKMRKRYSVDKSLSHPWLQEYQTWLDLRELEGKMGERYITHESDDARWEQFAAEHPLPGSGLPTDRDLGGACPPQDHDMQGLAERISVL
Sequence of human kinome (Homo sapiens, UniProt Q8NG66) (Q8NG66 whole entry): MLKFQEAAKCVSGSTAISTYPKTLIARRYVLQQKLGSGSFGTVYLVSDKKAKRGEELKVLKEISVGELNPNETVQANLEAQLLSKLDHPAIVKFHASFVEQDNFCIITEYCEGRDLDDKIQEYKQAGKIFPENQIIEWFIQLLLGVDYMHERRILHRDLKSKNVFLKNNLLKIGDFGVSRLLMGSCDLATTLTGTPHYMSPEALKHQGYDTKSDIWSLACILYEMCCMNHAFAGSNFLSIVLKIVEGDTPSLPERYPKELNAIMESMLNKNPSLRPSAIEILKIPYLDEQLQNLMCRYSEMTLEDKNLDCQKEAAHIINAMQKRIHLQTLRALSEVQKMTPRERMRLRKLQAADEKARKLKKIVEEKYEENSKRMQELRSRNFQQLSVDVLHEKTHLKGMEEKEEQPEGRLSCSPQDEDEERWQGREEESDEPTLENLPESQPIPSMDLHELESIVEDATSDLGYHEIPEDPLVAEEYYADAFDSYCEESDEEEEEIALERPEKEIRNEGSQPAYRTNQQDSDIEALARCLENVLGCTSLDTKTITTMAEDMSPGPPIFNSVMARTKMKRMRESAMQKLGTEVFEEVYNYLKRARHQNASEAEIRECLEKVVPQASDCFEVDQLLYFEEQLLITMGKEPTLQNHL
Sequence of human kinome (Homo sapiens, UniProt Q15208) (Q15208 whole entry): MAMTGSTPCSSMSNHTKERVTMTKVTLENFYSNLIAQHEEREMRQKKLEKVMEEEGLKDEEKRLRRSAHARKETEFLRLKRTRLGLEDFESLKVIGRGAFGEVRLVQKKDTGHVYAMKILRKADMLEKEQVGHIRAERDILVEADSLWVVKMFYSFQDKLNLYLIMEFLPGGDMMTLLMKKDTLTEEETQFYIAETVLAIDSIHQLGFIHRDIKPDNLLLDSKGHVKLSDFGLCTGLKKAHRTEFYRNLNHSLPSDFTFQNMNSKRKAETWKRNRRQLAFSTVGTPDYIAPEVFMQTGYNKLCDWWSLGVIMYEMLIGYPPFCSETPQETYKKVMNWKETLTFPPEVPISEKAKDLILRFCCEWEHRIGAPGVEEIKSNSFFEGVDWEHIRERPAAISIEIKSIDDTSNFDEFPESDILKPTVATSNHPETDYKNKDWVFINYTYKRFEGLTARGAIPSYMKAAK
Sequence of human kinome (Homo sapiens, UniProt Q9Y2K2) (Q9Y2K2 whole entry): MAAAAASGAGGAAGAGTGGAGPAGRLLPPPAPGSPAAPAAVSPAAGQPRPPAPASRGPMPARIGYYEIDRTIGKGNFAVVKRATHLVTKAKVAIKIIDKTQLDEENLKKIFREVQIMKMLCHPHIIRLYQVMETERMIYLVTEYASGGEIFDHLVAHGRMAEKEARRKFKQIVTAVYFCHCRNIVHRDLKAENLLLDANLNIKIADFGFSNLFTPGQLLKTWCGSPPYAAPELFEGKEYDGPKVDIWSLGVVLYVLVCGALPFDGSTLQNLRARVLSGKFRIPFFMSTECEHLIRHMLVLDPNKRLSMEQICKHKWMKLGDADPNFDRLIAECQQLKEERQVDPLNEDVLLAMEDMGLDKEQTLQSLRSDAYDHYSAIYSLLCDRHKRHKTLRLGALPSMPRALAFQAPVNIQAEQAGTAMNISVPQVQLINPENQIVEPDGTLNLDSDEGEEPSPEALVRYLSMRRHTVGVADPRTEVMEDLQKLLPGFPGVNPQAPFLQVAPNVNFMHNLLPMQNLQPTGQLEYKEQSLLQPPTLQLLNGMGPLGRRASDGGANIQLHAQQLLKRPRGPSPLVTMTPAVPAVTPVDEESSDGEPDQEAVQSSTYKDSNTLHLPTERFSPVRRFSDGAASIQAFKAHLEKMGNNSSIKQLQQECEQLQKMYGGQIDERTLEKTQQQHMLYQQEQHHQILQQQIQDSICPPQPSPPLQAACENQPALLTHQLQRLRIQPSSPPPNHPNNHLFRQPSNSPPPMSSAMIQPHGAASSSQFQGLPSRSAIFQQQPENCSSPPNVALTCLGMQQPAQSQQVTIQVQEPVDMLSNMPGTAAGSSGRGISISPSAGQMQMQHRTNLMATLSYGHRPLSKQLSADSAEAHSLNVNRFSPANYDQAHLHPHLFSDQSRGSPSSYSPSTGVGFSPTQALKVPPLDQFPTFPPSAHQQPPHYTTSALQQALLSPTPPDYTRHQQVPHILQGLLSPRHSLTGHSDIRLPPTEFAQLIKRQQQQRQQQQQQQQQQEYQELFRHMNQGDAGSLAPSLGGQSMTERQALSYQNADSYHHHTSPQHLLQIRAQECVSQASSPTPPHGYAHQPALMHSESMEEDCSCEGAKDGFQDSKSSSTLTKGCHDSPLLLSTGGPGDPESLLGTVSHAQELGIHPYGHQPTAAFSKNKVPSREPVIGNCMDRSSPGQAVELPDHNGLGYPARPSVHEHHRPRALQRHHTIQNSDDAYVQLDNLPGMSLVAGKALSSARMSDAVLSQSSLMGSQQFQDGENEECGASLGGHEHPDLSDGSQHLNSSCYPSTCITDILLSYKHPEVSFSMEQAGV
Sequence of human kinome (Homo sapiens, UniProt P07333) (P07333 20-972): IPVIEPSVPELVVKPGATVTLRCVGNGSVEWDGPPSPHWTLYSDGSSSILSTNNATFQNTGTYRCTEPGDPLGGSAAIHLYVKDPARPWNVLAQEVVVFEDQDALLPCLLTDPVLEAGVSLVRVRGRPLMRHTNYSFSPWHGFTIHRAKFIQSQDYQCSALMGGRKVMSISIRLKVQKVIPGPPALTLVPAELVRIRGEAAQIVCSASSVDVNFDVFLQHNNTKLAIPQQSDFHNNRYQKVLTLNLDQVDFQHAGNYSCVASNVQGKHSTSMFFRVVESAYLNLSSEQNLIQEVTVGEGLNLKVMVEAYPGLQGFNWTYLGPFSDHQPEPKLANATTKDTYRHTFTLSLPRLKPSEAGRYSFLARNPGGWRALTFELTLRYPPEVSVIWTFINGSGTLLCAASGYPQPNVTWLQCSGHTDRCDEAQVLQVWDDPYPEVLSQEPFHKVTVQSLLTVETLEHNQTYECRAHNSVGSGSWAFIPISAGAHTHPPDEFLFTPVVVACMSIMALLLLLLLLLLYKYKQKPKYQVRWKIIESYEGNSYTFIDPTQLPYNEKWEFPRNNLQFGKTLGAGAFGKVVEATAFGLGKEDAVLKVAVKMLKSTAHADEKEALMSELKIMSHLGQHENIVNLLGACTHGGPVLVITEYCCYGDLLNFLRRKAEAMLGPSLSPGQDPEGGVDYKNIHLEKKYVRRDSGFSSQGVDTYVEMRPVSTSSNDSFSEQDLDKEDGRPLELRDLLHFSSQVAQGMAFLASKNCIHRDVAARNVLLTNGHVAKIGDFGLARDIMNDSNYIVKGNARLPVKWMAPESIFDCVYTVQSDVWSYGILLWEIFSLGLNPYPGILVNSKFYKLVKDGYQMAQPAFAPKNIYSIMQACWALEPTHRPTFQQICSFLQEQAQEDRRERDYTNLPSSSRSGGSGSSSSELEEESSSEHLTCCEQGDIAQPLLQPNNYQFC
Sequence of human kinome (Homo sapiens, UniProt P54646) (P54646 whole entry): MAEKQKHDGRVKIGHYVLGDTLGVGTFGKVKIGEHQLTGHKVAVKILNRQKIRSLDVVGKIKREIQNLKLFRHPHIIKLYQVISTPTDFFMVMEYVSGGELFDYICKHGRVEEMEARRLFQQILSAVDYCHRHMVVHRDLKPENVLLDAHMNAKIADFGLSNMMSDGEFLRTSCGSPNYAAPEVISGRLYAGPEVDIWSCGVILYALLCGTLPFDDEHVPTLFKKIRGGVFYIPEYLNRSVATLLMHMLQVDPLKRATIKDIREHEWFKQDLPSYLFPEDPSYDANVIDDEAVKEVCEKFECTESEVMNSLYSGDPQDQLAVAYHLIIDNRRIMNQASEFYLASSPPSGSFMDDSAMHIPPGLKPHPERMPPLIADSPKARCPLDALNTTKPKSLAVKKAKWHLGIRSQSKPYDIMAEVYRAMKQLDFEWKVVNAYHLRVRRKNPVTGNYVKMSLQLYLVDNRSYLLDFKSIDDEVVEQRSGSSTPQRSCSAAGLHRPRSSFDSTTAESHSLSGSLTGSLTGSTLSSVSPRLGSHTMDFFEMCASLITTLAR

## COc1cc(F)ccc1-c1cc(Nc2cc(CS(C)(=N)=O)ccn2)ncc1F (stereo not drawn) [VIP152]
Human kinome [1]
  remaining binding at 1 µM: 84%
Human kinome [2]
  remaining binding at 0.1 µM: 100%
Human kinome [3]
  remaining binding at 0.1 µM: 89%
Human kinome [4]
  remaining binding at 0.1 µM: 100%
Human kinome [5]; NDR1 (Entrez STK38), 100 nM
  remaining binding at 0.1 µM: 100%
Human kinome [5]; kinase NDR1 (Entrez STK38), compound concentration 1000 nM
  remaining binding at 1 µM: 93%
Human kinome [6]
  remaining binding at 0.1 µM: 92%
Human kinome [7]
  remaining binding at 0.1 µM: 61%
Human kinome [8]
  remaining binding at 0.1 µM: 92%
Human kinome [9]
  remaining binding at 0.1 µM: 63%
Human kinome [10]; NEK11, 100 nM
  remaining binding at 0.1 µM: 100%
Human kinome [10]; kinase NEK11 (Entrez NEK11), compound concentration 1000 nM
  remaining binding at 1 µM: 74%
Human kinome [11]
  remaining binding at 0.1 µM: 100%
Human kinome [12]
  remaining binding at 0.1 µM: 100%
Human kinome [13]
  remaining binding at 1 µM: 86%
Human kinome [14]; PRKD2, 100 nM
  remaining binding at 0.1 µM: 90%
Human kinome [14]; kinase PRKD2 (Entrez PRKD2), compound concentration 1000 nM
  remaining binding at 1 µM: 88%
Human kinome [15]; CSF1R-autoinhibited
  remaining binding at 0.1 µM: 95%
Human kinome [15]; CSF1R
  remaining binding at 0.1 µM: 100%
Human kinome [16]
  remaining binding at 0.1 µM: 100%
Human kinome [17]
  remaining binding at 0.1 µM: 100%
Human kinome [18]
  remaining binding at 0.1 µM: 100%
Human kinome [19]
  remaining binding at 1 µM: 79%
Human kinome [20]
  remaining binding at 0.1 µM: 100%
Human kinome [21]
  remaining binding at 0.1 µM: 100%
Human kinome [22]
  remaining binding at 0.1 µM: 95%
Human kinome [23]
  remaining binding at 0.1 µM: 100%
Human kinome [24]
  remaining binding at 1 µM: 88%
Human kinome [25]
  remaining binding at 1 µM: 65%
Human kinome [26]
  remaining binding at 0.1 µM: 79%
Human kinome [27]; QSK (Entrez KIAA0999), 100 nM
  remaining binding at 0.1 µM: 100%
Human kinome [27]; kinase QSK (Entrez KIAA0999), compound concentration 1000 nM
  remaining binding at 1 µM: 98%
Human kinome [28]; PKAC-alpha (Entrez PRKACA), 100 nM
  remaining binding at 0.1 µM: 97%
Human kinome [28]; kinase PKAC-alpha (Entrez PRKACA), compound concentration 1000 nM
  remaining binding at 1 µM: 100%
Human kinome [29]
  remaining binding at 0.1 µM: 93%
Human kinome [30]
  remaining binding at 1 µM: 90%
